Laboratory results reported in publication PMC10533593 (Molecular Neurobiology, 2023).
Values belong to the compound of their own block, whether it stands above or below them.

Key:
[1] = biological target: T1, α1AR-D4.4R (D4.4R read-out) (Homo sapiens, UniProt P21917); assay: BRET beta-arrestin-2-Rluc recruitment to alpha1AR-YFP in HEK-293T; assay type: cell-based
T1 construct: gene DRD4; D4.4R (non-fused) co-expressed with alpha1AR in HEK-293T; alpha1AR non-fused in Gi assay, alpha1AR-YFP in beta-arrestin-2 assay; with Alpha-1A adrenergic receptor
T1 sequence (P21917 1-419): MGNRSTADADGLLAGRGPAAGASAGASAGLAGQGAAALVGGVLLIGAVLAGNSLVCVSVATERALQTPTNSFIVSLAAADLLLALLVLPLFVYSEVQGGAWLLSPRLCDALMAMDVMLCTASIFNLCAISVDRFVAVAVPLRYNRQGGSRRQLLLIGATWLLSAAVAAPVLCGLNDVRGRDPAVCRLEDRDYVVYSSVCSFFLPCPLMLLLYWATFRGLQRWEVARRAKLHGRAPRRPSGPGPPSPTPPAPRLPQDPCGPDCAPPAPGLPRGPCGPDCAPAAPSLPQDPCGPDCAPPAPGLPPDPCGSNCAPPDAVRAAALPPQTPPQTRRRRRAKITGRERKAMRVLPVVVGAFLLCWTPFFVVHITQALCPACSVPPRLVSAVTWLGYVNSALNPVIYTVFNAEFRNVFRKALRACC
T1 sequence (P35348 1-466 partner): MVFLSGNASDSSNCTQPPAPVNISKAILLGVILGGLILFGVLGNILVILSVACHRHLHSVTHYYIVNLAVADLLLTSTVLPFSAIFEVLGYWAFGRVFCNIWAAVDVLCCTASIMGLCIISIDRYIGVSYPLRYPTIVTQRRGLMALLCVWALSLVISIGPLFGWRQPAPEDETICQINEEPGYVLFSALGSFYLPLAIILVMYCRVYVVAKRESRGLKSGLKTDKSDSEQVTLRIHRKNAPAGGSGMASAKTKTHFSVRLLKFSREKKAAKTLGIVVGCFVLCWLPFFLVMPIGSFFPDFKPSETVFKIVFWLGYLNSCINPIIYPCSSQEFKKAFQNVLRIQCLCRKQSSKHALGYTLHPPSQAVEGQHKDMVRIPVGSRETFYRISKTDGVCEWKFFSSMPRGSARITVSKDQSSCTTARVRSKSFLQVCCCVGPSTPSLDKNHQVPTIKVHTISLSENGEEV
Description: BRET beta-arrestin-2-Rluc recruitment to alpha1AR-YFP in HEK-293T on α1AR-D4.4R (D4.4R read-out)

[2] = biological target: T2, D4.4R (Homo sapiens, UniProt P21917); assay type: cell-based; conditions: antagonist 1 μM, added 10 min before dopamine; D4.4R alone
T2 construct: gene DRD4; non-fused full-length human D4.4R in pcDNA3.1, transiently expressed in HEK-293T without alpha1AR; Galphai1-Rluc, Ggamma2-YFP and Gbeta1 reporters co-transfected
T2 sequence (P21917 1-419): T1 sequence (P21917 1-419)

[3] = biological target: T3, α1AR (Homo sapiens, UniProt P35348); assay type: cell-based; conditions: antagonist 1 μM, added 10 min before A61603; alpha1AR alone
T3 construct: gene ADRA1A; non-fused full-length human alpha1AR in pcDNA3.1, transiently expressed in HEK-293T without D4R; Galphaq-Rluc or Galphas-Rluc, Ggamma2-YFP and Gbeta1 reporters co-transfected
T3 sequence (P35348 1-466): T1 sequence (P35348 1-466 partner)

[4] = biological target: human α1A adrenoreceptor fused to Rluc (human) (UniProt P35348); assay: FRET or BRET; BRET saturation in intact HEK-293T cells: constant amount of cDNA of the Rluc-fused receptor, increasing amounts of cDNA of the YFP-fused receptor; coelenterazine H 5 μM; HBSS with 0.1% glucose; single-phase saturation fit
[5] = biological target: human dopamine D4 receptor, polymorphic variant D4.4R, fused to Rluc (human) (UniProt P21917); assay: as above
[6] = biological target: T3, α1AR; assay: BRET Gq and Gs activation in HEK-293T; assay type: cell-based; conditions: agonist; alpha1AR alone; 10 μM dopamine; intact cells

EC50 [1]: 30 ± 19 nM
Compound: Cc1cccc(NC(=O)CN2CCC(c3ccccn3)CC2)c1 [A412997]

Compound: Clc1ccc(N2CCN(Cc3c[nH]c4ncccc34)CC2)cc1 [L745870]
BRET Gi1 activation in HEK-293T, antagonism of dopamine [2]: the selective D4R antagonist L745870, but not the α1AR antagonist prazosin, antagonized the effect of dopamine

Compound: COc1cc2nc(N3CCN(C(=O)c4ccco4)CC3)nc(N)c2cc1OC [prazosin]
BRET Gq and Gs activation in HEK-293T, antagonism of A61603 [3]: the effect of A61603 was counteracted by prazosin

BRET50 [4]: 25
Compound: human dopamine D4 receptor, polymorphic variant D4.7R, fused to YFP

BRET50 [5]: 33
Compound: human α1A adrenoreceptor fused to YFP (from UniProt P35348 1-466)

% of norepinephrine effect at 10 μM [6]: < 50%
Compound: NCCc1ccc(O)c(O)c1 [dopamine]
